Consider eight compounds from PubChem BioAssay (NCI).

Test systems include A549 NSCLC; DU-145 prostate; HCT-15 colon; HOP-62 NSCLC; HT29 colon; MALME-3M melanoma; SK-MEL-2 melanoma; SN12C renal; SNB-75 CNS; SR leukemia.
What all share (assay): NCI anticancer screen, dose series, 48 h

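How tested: cells in 96-well plates exposed to compound for 48 hours at five concentrations. GI50 = concentration required for 50% inhibition of growth. TGI is the concentration that stops growth completely.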

For the compound `CC[C@H](C)C(=O)O[C@H]1C[C@H](O)C=C2C=C[C@H](C)[C@H](CC[C@@H](O)C[C@@H](O)CC(=O)O)[C@H]21`, the GI50 in the experiment on A549 NSCLC, in the experiment on DU-145 prostate, with HCT-15 colon, in the experiment on HOP-62 NSCLC, with HT29 colon and with MALME-3M melanoma was above 100 µM in each case. The GI50 with SK-MEL-2 melanoma, with SN12C renal, in the experiment with SNB-75 CNS and with SR leukemia was above 100 µM throughout. For the same compound, the TGI in the experiment with A549 NSCLC, in the experiment on DU-145 prostate, in the experiment with HCT-15 colon, in the experiment with HOP-62 NSCLC, with HT29 colon and with MALME-3M melanoma was above 100 µM in each case. The TGI in the experiment on SK-MEL-2 melanoma, in the experiment with SN12C renal, in the experiment on SNB-75 CNS and with SR leukemia was above 100 µM in each case.

For the compound `Cc1coc2c1C(OC(=O)C(C)C)C1(C)C(C)CCC(O)C1C2=O` (stereo not given), the TGI in the experiment on A549 NSCLC, in the experiment with DU-145 prostate, in the experiment with HCT-15 colon, in the experiment on HOP-62 NSCLC, with HT29 colon and in the experiment with MALME-3M melanoma was above 100 µM each time. Moreover, the TGI in the experiment on SK-MEL-2 melanoma, in the experiment with SN12C renal, with SNB-75 CNS and in the experiment with SR leukemia was above 100 µM each time.

As to `O=C(O)C(Oc1nc(=S)[nH]c(=S)[nH]1)(c1ccc(Cl)cc1)c1ccc(Cl)cc1`, the TGI in the experiment with A549 NSCLC, in the experiment with DU-145 prostate, in the experiment with HCT-15 colon, in the experiment on HOP-62 NSCLC, in the experiment with HT29 colon and with MALME-3M melanoma was above 100 µM in each case. Moreover, the TGI in the experiment on SK-MEL-2 melanoma, in the experiment with SN12C renal, in the experiment with SNB-75 CNS and in the experiment on SR leukemia was above 100 µM each time.

As for `O=C(c1ccccc1)c1c(C(F)(F)F)n([O-])c2ccc(C(F)(F)F)cc2[n+]1=O`, the GI50 is 0.14 µM in the experiment on A549 NSCLC; 0.289 µM with DU-145 prostate; 0.277 µM in the experiment with HCT-15 colon; 0.347 µM in the experiment with HOP-62 NSCLC; 0.177 µM with HT29 colon; 0.545 µM in the experiment on MALME-3M melanoma. Moreover, the GI50 was 1.24 µM in the experiment on SK-MEL-2 melanoma, 0.215 µM with SN12C renal, 0.52 µM in the experiment on SNB-75 CNS and 0.109 µM in the experiment on SR leukemia. Also, the TGI in the experiment on A549 NSCLC is 0.278 µM; with DU-145 prostate, 0.698 µM; in the experiment on HCT-15 colon it was 0.711 µM; in the experiment with HOP-62 NSCLC, 0.765 µM; with HT29 colon, 0.349 µM; in the experiment on MALME-3M melanoma, 1.2 µM. Moreover, the TGI is 2.96 µM in the experiment on SK-MEL-2 melanoma, 0.468 µM in the experiment with SN12C renal, 1.13 µM in the experiment on SNB-75 CNS and 0.393 µM with SR leukemia.

As to `C[C@@H]1COCCN1c1cc(C2(O)C[C@H]3CC[C@@H](C2)O3)c2cnn(-c3ccn[nH]3)c2n1` (stereo not given in full), the GI50 with A549 NSCLC was 0.0651 µM; with DU-145 prostate, 0.0553 µM; in the experiment with HCT-15 colon, 0.0394 µM; in the experiment with HOP-62 NSCLC, 0.0786 µM; in the experiment on HT29 colon, 0.181 µM; in the experiment on MALME-3M melanoma, 0.0656 µM. Besides, the GI50 in the experiment with SK-MEL-2 melanoma is 0.0304 µM; in the experiment on SN12C renal, 0.143 µM; in the experiment on SNB-75 CNS, 0.043 µM; in the experiment on SR leukemia, 0.0112 µM. Moreover, the TGI is 1.13 µM with A549 NSCLC; 2.46 µM in the experiment on DU-145 prostate; above 42.2 µM in the experiment with HCT-15 colon; 1.41 µM in the experiment with HOP-62 NSCLC; above 100 µM in the experiment with HT29 colon; 0.462 µM with MALME-3M melanoma. The TGI stood at 0.202 µM with SK-MEL-2 melanoma, 4.09 µM in the experiment on SN12C renal, 0.411 µM in the experiment on SNB-75 CNS and 26.9 µM in the experiment on SR leukemia.

In the case of `C[C@@H](Nc1nc(Nc2ccc(F)c(Cl)c2)nc2ccccc12)C1CC1`, the GI50 was 5.64 µM with A549 NSCLC; 7.19 µM with DU-145 prostate; 2.39 µM with HCT-15 colon; 11.2 µM with HOP-62 NSCLC; 2.72 µM in the experiment on HT29 colon; 1.66 µM with MALME-3M melanoma. Besides, the GI50 in the experiment with SK-MEL-2 melanoma was 5.88 µM; in the experiment on SN12C renal, 3.25 µM; in the experiment with SNB-75 CNS, 4.08 µM; in the experiment on SR leukemia it was 1.63 µM. In addition, the TGI with A549 NSCLC is 19.6 µM; in the experiment with DU-145 prostate it was 20.5 µM; in the experiment with HCT-15 colon, 8.14 µM; in the experiment on HOP-62 NSCLC, 25 µM; with HT29 colon, 11.7 µM; with MALME-3M melanoma it was 3.65 µM. In addition, the TGI amounted to 24.9 µM with SK-MEL-2 melanoma, 14.4 µM in the experiment on SN12C renal, 22.3 µM in the experiment with SNB-75 CNS and 5.26 µM in the experiment on SR leukemia.

On to `CC(=O)c1cc(O)c2ccccc2c1O`, for which the GI50 in the experiment on A549 NSCLC is 37.1 µM; in the experiment on DU-145 prostate, 18.9 µM; with HCT-15 colon, 20.5 µM; in the experiment with HOP-62 NSCLC, 17.5 µM; with HT29 colon it was 15.5 µM; with MALME-3M melanoma it was 18.2 µM. Also, the GI50 is 20.4 µM in the experiment with SK-MEL-2 melanoma, 17.5 µM in the experiment on SN12C renal, 15.7 µM in the experiment on SNB-75 CNS and 28 µM in the experiment with SR leukemia. Further, the TGI in the experiment on A549 NSCLC is above 100 µM; in the experiment with DU-145 prostate it was 33 µM; with HCT-15 colon it was 44.1 µM; in the experiment with HOP-62 NSCLC, 41.4 µM; in the experiment with HT29 colon, 37 µM; with MALME-3M melanoma it was 34.2 µM. In addition, the TGI with SK-MEL-2 melanoma is 38.7 µM; in the experiment with SN12C renal, 36.3 µM; in the experiment with SNB-75 CNS, 32.8 µM; in the experiment with SR leukemia it was above 100 µM.

In the case of `Cc1cc(Nc2cc(N)ncn2)c(=O)n2c1C(=O)NC21CCCCC1`, the GI50 was above 100 µM in the experiment on A549 NSCLC; above 100 µM with DU-145 prostate; above 100 µM with HCT-15 colon; 31.2 µM in the experiment on HOP-62 NSCLC; above 100 µM in the experiment with HT29 colon; above 100 µM in the experiment on MALME-3M melanoma. Further, the GI50 with SK-MEL-2 melanoma was 58.2 µM; with SN12C renal, above 100 µM; in the experiment on SNB-75 CNS, 9.32 µM; in the experiment with SR leukemia, above 100 µM. The TGI in the experiment on A549 NSCLC, in the experiment on DU-145 prostate, with HCT-15 colon, with HOP-62 NSCLC, in the experiment with HT29 colon and with MALME-3M melanoma was above 100 µM throughout. In addition, the TGI in the experiment with SK-MEL-2 melanoma, in the experiment with SN12C renal, in the experiment on SNB-75 CNS and in the experiment with SR leukemia was above 100 µM each time.
